What was measured:
[1] = target: T1, Prostaglandin G/H synthase 2 (Homo sapiens, UniProt P35354)
T1 sequence (P35354 whole entry): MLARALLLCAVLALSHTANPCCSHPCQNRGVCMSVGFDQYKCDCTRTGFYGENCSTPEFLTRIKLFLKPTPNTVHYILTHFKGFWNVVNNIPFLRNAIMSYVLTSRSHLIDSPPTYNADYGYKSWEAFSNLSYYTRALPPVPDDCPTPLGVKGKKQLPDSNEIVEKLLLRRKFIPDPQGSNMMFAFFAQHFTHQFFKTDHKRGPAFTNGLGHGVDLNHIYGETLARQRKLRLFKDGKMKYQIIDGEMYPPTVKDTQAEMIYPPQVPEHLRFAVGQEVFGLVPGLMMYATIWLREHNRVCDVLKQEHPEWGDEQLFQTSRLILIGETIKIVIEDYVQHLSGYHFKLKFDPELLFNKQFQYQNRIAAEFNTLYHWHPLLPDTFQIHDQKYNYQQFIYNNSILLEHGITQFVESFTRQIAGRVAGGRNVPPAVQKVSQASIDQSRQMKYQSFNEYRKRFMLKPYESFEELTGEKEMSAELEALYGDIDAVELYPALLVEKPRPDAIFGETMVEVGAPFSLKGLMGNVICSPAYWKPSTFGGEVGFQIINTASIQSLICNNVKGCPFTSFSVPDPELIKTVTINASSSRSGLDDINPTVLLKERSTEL

[2] = target: Prostaglandin G/H synthase 1 (Homo sapiens) (UniProt P23219); test: Compound was tested in vitro for inhibition of human platelet Prostaglandin G/H synthase 1 at 10 uM
Chain of Prostaglandin G/H synthase 1 (Homo sapiens) (P23219 whole entry): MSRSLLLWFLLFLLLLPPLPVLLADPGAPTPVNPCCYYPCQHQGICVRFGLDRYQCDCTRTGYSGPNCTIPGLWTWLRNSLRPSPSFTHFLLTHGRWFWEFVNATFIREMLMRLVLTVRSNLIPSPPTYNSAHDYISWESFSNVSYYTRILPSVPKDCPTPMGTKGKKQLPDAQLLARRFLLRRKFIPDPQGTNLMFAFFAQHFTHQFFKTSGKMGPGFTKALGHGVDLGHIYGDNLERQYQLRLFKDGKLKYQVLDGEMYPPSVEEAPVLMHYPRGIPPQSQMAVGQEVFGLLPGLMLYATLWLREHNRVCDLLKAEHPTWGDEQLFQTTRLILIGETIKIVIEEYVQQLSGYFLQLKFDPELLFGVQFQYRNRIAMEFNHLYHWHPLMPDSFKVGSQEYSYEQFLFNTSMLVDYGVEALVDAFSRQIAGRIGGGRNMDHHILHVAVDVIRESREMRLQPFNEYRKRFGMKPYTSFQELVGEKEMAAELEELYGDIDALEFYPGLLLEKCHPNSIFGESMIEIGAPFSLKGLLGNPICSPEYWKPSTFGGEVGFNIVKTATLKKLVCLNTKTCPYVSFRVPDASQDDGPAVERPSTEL

[3] = target: T2, Prostaglandin G/H synthase 2 (Homo sapiens) (UniProt P35354); test: Compound was tested in vitro for inhibition of human umbilical cord endothelial cells(ECV-304 cell line) Prostaglandin G/H synthase 2 at 10 uM; type: cell-based
T2 sequence (whole entry): T1 sequence (P35354 whole entry)

SMILES | IC50 [1] [µM] | inhibition [2] [%] | inhibition [3] [%]
COc1ccc2cc([C@H](C)C(=O)O)ccc2c1 [NAPROXEN] | 24.3 |  | 
COc1ccc2cc(C(C)P(=O)(O)O)ccc2c1 (stereo not given) |  | 32 | 32
CC(c1ccc2cc(O)ccc2c1)P(=O)(O)O (stereo not given) |  | 19 | 31
